Key:
TRN neurons in WT mice = assay: Rebound burst firing in TRN neurons, acute brain slices from WT mice; format: cell-based; conditions: mean±s.e.m.
Excerpt: (§1) TRN neurons are known to display dual firing modes depending on their resting membrane potential: tonic and burst firing. While tonic firing refers to regular sodium spike trains at depolarized membrane potential, burst firing is characterized by repetitive “low-threshold” T type Ca^2+ transients (mediated by Cav3.3 channel) crowned by high-frequency sodium spikes when hyperpolarized. This burst firing mode may be critical for the generation and/or the maintenance of certain sleep rhythms in mice, including generation and maintenance of sleep spindle oscillations (Astori et al., 2011; Lee et al., 2014; Steriade et al., 1993; von Krosigk et al., 1993; Sherman et al., 2002).
Whether this characteristic TRN burst firing activity is affected by activation of the group II metabotropic glutamate receptors, including mGlu2 and mGlu3, was examined using the group II metabotropic glutamate receptor agonist, LY379268. As shown in FIG. 1A-1B, a significant increase in the repetitive rebound bursting after the addition of LY379268 compared to baseline levels in acute brain slices acquired from wild-type (WT) mice was observed. The rebound bursting in the baseline condition (control) was 1.87±0.291 (mean±s.e.m.), while after the bath application of LY379268 (1 μM) it was 2.87±0.435 (n=15 Wilcoxon signed rank test: p=0.002**). Such increase was not observed in WT slices treated with artificial cerebrospinal fluid (ACSF; n=14; baseline: 1.79±0.291; ACSF treated: 2.21±0.299; Wilcoxon signed rank test: p=0.1562). In addition, there was also a reduction in burst threshold (defined as the lowest membrane holding potential from which hyperpolarization induced rebound bursting can be observed) in WT mice after bath application of LY379268 (1 μM; FIG. 1C). The threshold for rebound bursting in the baseline condition (control) was −76.98 mV±1.79 (mean±s.e.m.), while after the bath application of LY379268 (1 μM) it was −78.48 mV±1.80 (n=10 Wilcoxon signed rank test: p=0.048*). Such changes in threshold were also not observed following ACSF treatment (n=10; baseline: −76.06 mV±1.71; ACSF treated: −76.32 mV±1.82; Wilcoxon signed rank test: p=0.3750).
Since early clinical trials used a prodrug form of another selective group II metabotropic glutamate receptor agonist, specifically […] (a methionine amide of LY-404039, also called pornagiumetad methionil or LY-2140023 monohydrate), the effect of LY-404039 on TRN neuron rebound bursting activity in WT mice was measured. […] The rebound bursting in control conditions was 2.71±0.42 (mean±s.e.m.), while after the bath application of LY404039 (1 μM) it was 4.57±0.64 (n=7 Wilcoxon signed rank test: p=0.0156).
Whether specific allosteric activation of the mGlu3 receptor can also enhance rebound bursting activity in TRN neurons was examined. […]

TRN neurons in RH mice = assay: Rebound burst firing in TRN neurons, slices from CACNA1I R1305H (RH) mice; format: cell-based; conditions: LY379268 1 μM bath application, mean±s.e.m., n=9, baseline 1.44±0.444, p=0.0039
Excerpt: as §1
Mice carrying a mutation in CACNA1I (R1305H; RH mice) show a significant deficit in rebound bursting of TRN neurons. The amino acid sequence of mouse CACNA1I protein is provided in SEQ ID NO: 2. Whether the group II metabotropic glutamate receptor agonist LY379268 could rescue such deficits in rebound bursting in RH mice was tested. Similar to in WT mice, LY379268 (1 μM) was also able to increase rebound bursting in RH mice (FIG. 2A-2B). The rebound bursting in baseline/control conditions was 1.44±0.444 (mean±s.e.m.), while after the bath application of LY379268 (1 μM) it was 3.78±1.08 (n=9 Wilcoxon signed rank test: p=0.0039**). […]

WT and CaV3.3 RH mice = assay: EEG recording of NREM sleep, delta power and sleep spindles after LY379268, analyzed by Luna; format: in vivo; conditions: 10 mg/kg i.p.
Experimental: (§2) There is a strong correlation between rebound bursting in TRN neurons and the rate of occurrence of sleep spindle oscillations during NREM or deep sleep state in mice (Wells et al., Ghoshal et al.) Since LY379268 increased rebound burst firing of TRN neurons in WT mice and rescued rebound bursting deficits in RH mice, it was examined whether activation of mGlu3 could rescue the sleep spindle deficits observed in the RH mice. LY379268 was administered intraperitoneally (i.p.; 10 mg/kg) while simultaneously recording the brain activity using electroencephalography (EEG) in WT and CaV3.3 RH mice. EEG was recorded using surface electrodes chronically implanted near the frontal and parietal lobes of the mice (Pinnacle Systems). Mice were habituated in the EEG recording arena for 48 hrs and then injected with vehicle (0.9% saline) and recorded for another 24 hours. Then, 10 mg/kg LY379268 formulated in 0.9% saline was injected, and their EEG activity was recorded for another 24 hours, and analyzed by Luna (zzz.bwh.harvard.edu, Ghoshal et al., 2020).

WT mice = assay: EEG recording of NREM sleep and sleep spindle density after Mavalon-63, decision tree algorithm; format: in vivo; conditions: 10 mg/kg
Experimental: as §2
Whether allosteric activation of mGlu3 receptor using the Mavalon-63 PAM would also lead to an increase in sleep spindle density was examined. The experimental design is shown in FIG. 6A, and mice were similarly recorded as in Example 4. […]

[1] = both WT and RH mice, 12 hr light cycle

N[C@@]1(C(=O)O)CO[C@H]2[C@H](C(=O)O)[C@H]21 (stereo in doubt) [LY379268, (1R,4R,5S, 6R)-4-Amino-2-oxabicyclo[3.1.0]hexane-4,6-dicarboxylic acid]
threshold for rebound bursting after bath application (TRN neurons in WT mice; WT mice, LY379268 1 μM bath application, n=10, baseline −76.98 mV±1.79, p=0.048): −78.48 mV | rebound bursting (number of rebound bursts) after bath application (TRN neurons in WT mice; WT mice, LY379268 1 μM bath application, n=15, baseline 1.87±0.291, p=0.002): 2.87±0.435 | rebound bursting (number of rebound bursts) after bath application (TRN neurons in RH mice): 3.78±1.08 | NREM specific sleep spindle deficits in RH mice (WT and CaV3.3 RH mice; RH mice, to wildtype levels, WT-baseline vs RH-LY379268 p>0.05): rescued | sleep spindle density, entire NREM period (WT and CaV3.3 RH mice; both WT and RH mice, 12-hr light cycle, especially parietal cortex, Fc=13 Hz and 15 Hz): modest but significant increase | relative delta power (WT and CaV3.3 RH mice; [1]): concurrent increase | time spent in NREM sleep (WT and CaV3.3 RH mice; [1]): increased | increase in sleep spindles, latter half (last 6 hours) of the light cycle (WT and CaV3.3 RH mice; compared with the entire 12-hr light cycle, Fc=13 Hz and 15 Hz): more robust

N[C@@]1(C(=O)O)CS(=O)(=O)[C@H]2[C@H](C(=O)O)[C@H]21 [LY404039, (1R,4S,5S,6S)-4-Amino-2-thiabicyclo [3.1.0]hexane-4,6-dicaiboxylic acid 2,2-dioxide]
rebound bursting (number of rebound bursts) after bath application (TRN neurons in WT mice; WT mice, LY404039 1 μM bath application, n=7, control 2.71±0.42, p=0.0156): 4.57±0.64

CN1C(=O)c2cccn2-c2cc(-c3ccc(F)cn3)ccc2C12CC2 [Mavalon 63, 5-Methyl-9-(5-fluoropyridin-2-yl)-spiro[benzo [f]pyrrolo[1.2-a][1,4]diazepine-6,1′-cyclopropan]-4(5H)-one]
rebound bursting (number of rebound bursts) after bath application (TRN neurons in WT mice; WT TRN neurons, Mavalon 63 500 nM bath application, n=12, baseline 3.2±0.77, p=0.0020): 4.9±0.91 | time spent in NREM (WT mice; 12-hr light cycle): did not increase | parietal sleep spindle density during NREM (WT mice; averaged across all center frequencies 9-15 Hz, 12 hour light cycle): appreciable and significant (p<0.05; paired t-test) increase

From patent US20220211658A1, “METHODS FOR TREATING DISORDERS ASSOCIATED WITH SLEEP SPINDLE DEFICITS” (The Broad Institute, Inc., priority 2019, published 2022)
